Experiment [1] deals with GDP-bound NRAS wild-type protein (Homo sapiens, UniProt P01111). Description: Binding to NRAS by surface plasmon resonance (SPR), Single Cycle Kinetics. Particulars: SPR, GDP-bound NRAS wild-type protein vs GDP-bound KRAS wild-type protein. In general terms: Surface plasmon resonance follows binding to a sensor surface in real time, without labels.
Experiment [2] deals with GDP-bound HRAS wild-type protein (Homo sapiens, UniProt P01112). Description: Binding to HRAS by surface plasmon resonance (SPR), Single Cycle Kinetics. The settings on record: SPR, GDP-bound HRAS wild-type protein vs GDP-bound KRAS wild-type protein.
Chain of GDP-bound HRAS wild-type protein (P01112 whole entry): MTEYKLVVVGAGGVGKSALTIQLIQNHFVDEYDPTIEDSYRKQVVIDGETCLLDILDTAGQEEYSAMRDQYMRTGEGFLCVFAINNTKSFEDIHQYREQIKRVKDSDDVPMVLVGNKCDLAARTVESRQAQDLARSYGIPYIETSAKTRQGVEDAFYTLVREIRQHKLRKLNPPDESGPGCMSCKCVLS
For experiment [3], the system named is human lung cancer strain NCI-H441.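 Further: cell proliferation inhibition after four days measured by CellTiter-Glo.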

Where a SMILES comes first, the peptide text is derived from it. Bridges are numbered along the chain shown (N, C = ends). [ ]: non-standard residue; d: D form. The star is where a group is joined. hPhe(3,5-F2-4-CF3) = N[C@@H](CCc1cc(F)c(C(F)(F)F)c(F)c1)C(=O)O; hPhe(3-Cl-4-CF3) = N[C@@H](CCc1ccc(C(F)(F)F)c(Cl)c1)C(=O)O; NPrPhe(4-CF3) = CCCN[C@@H](Cc1ccc(C(F)(F)F)cc1)C(=O)O; NMeGly(cPent) = CN[C@H](C(=O)O)C1CCCC1; NMeD = CN[C@@H](CC(=O)O)C(=O)O; NMeL = CN[C@@H](CC(C)C)C(=O)O; αMeL = CC(C)C[C@](C)(N)C(=O)O; Pip = O=C(O)[C@@H]1CCCCN1; αMeS = C[C@](N)(CO)C(=O)O; Morpholide = C1CN(*)CCO1; Ac5c = NC1(C(=O)O)CCCC1; Aze = O=C(O)[C@@H]1CCN1; NEtG = CCNCC(=O)O; Sar = CNCC(=O)O

Chain of GDP-bound NRAS wild-type protein (P01111 whole entry): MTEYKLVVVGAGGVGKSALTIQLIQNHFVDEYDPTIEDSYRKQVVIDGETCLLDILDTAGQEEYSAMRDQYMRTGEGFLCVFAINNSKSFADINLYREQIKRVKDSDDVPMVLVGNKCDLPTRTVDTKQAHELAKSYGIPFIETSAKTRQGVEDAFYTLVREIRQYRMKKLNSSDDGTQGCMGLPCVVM

A word on the IC50: it is the concentration at which inhibition is half-maximal. The low end stands for greater potency in that assay, the high end for weaker potency in that assay. Consider `CCCN1C(=O)CN(C)C(=O)[C@@H]2CCN2C(=O)[C@H]([C@@H](C)CC)NC(=O)[C@H](CC(C)C)N(C)C(=O)C[C@@H](C(=O)N2CCOCC2)N(C)C(=O)[C@H](C2CCCC2)N(C)C(=O)[C@](C)(CC(C)C)NC(=O)[C@@H]2CCCN2C(=O)[C@H](CCc2cc(F)c(C(F)(F)F)c(F)c2)NC(=O)CN(C)C(=O)[C@@H]1Cc1ccc(C(F)(F)F)cc1` [PP0776] ([NMeL]I[Aze][Sar][NPrPhe(4-CF3)][Sar][hPhe(3,5-F2-4-CF3)]P[αMeL][NMeGly(cPent)][NMeD]-Morpholide; lactam N-11), for which the “NRAS/KRAS (ratio of KD value with respect to NRAS to KD value with respect to KRAS)” value in experiment [1] is “B (a compound having 3 or more and less than 10 is denoted as B)”. The “HRAS/KRAS (ratio of KD value with respect to HRAS to KD value with respect to KRAS)” value in experiment [2] was “B (a compound having 3 or more and less than 10 is denoted as B)”. The compound further came in with an IC50 in experiment [3] of 591 nM.
As to `CCCN1C(=O)CN(C)C(=O)[C@@H]2CCN2C(=O)[C@H]([C@@H](C)CC)NC(=O)[C@H](CC(C)C)N(C)C(=O)C[C@@H](C(=O)N2CCOCC2)N(C)C(=O)[C@H](C2CCCC2)N(C)C(=O)[C@](C)(COC)NC(=O)[C@@H]2CCCN2C(=O)[C@H](CCc2cc(F)c(C(F)(F)F)c(F)c2)NC(=O)CN(C)C(=O)[C@@H]1Cc1ccc(C(F)(F)F)cc1` [PP0779] ([NMeL]I[Aze][Sar][NPrPhe(4-CF3)][Sar][hPhe(3,5-F2-4-CF3)]P[αMeS](Me)[NMeGly(cPent)][NMeD]-Morpholide; lactam N-11), in experiment [1], the “NRAS/KRAS (ratio of KD value with respect to NRAS to KD value with respect to KRAS)” value is “B (a compound having 3 or more and less than 10 is denoted as B)”. The “HRAS/KRAS (ratio of KD value with respect to HRAS to KD value with respect to KRAS)” value in experiment [2] was “B (a compound having 3 or more and less than 10 is denoted as B)”. In experiment [3], this compound had a half-inhibitory concentration (IC50) of 364 nM.
As to `CCCOC[C@H]1C(=O)N[C@@H]([C@@H](C)CC)C(=O)N(C)CC(=O)N(C)[C@H]2C/C=C\CCN(C2=O)[C@@H](Cc2ccc(C)cc2)C(=O)N(C)CC(=O)N[C@@H](CCc2ccc(C(F)(F)F)c(Cl)c2)C(=O)N2C[C@H](CC)C[C@H]2C(=O)NC2(CC(C)(C)C2)C(=O)N(C)[C@@H](C2CCCC2)C(=O)N(C)[C@H](C(=O)N(C)C)CC(=O)N1C` [PP2235], the “NRAS/KRAS (ratio of KD value for NRAS to KD value for KRAS)” value in experiment [1] is “A (a compound having 10 or more and less than 20 is denoted as A)”. Moreover, the “HRAS/KRAS (ratio of KD value for HRAS to KD value for KRAS)” value in experiment [2] was “A (a compound having 10 or more and less than 20 is denoted as A)”. In experiment [3], this compound came in with a 50% inhibitory concentration (IC50) of 22.1 nM.
Regarding `CCCN1C(=O)CN(C)C(=O)[C@@H]2CCN2C(=O)[C@H]([C@@H](C)CC)NC(=O)[C@H](CC(C)C)N(C)C(=O)C[C@@H](C(=O)N2CCOCC2)N(C)C(=O)[C@H](C2CCCC2)N(C)C(=O)C2(CCCC2)NC(=O)[C@@H]2CCCN2C(=O)[C@H](CCc2ccc(C(F)(F)F)c(Cl)c2)NC(=O)CN(C)C(=O)[C@@H]1Cc1ccc(C(F)(F)F)cc1` [PP0158] ([NMeL]I[Aze][Sar][NPrPhe(4-CF3)][Sar][hPhe(3-Cl-4-CF3)]P[Ac5c][NMeGly(cPent)][NMeD]-Morpholide; lactam N-11), the “NRAS/KRAS (ratio of KD value for NRAS to KD value for KRAS)” value in experiment [1] is “A (a compound having 10 or more and less than 20 is denoted as A)”. Moreover, the “HRAS/KRAS (ratio of KD value for HRAS to KD value for KRAS)” value in experiment [2] was “B (a compound having 3 or more and less than 10 is denoted as B)”. In experiment [3], the half-inhibitory concentration (IC50) was found to be 15.4 nM.
Regarding `CCO[C@@H]1C[C@H]2C(=O)NC3(CCC3)C(=O)N(C)[C@@H](C3CCCC3)C(=O)N(C)[C@H](C(=O)N(C)C)CC(=O)N(C)[C@@H](CC3CCCC3)C(=O)N[C@@H]([C@@H](C)CC)C(=O)N(C)CC(=O)N(C)[C@H]3CCCCCN(C3=O)[C@@H](Cc3ccc(C(F)(F)F)cc3)C(=O)N(C)CC(=O)N[C@@H](CCc3cc(F)c(C(F)(F)F)c(F)c3)C(=O)N2C1` [PP0670], the “NRAS/KRAS (ratio of KD value with respect to NRAS to KD value with respect to KRAS)” value in experiment [1] is “B (a compound having 3 or more and less than 10 is denoted as B)”. The “HRAS/KRAS (ratio of KD value with respect to HRAS to KD value with respect to KRAS)” value in experiment [2] was “B (a compound having 3 or more and less than 10 is denoted as B)”. The compound also gave an IC50 in experiment [3] of 11.3 nM.
As to `CCCN1C(=O)CN(C)C(=O)CN(CC)C(=O)[C@H]([C@@H](C)CC)NC(=O)[C@H](CC(C)C)N(C)C(=O)C[C@@H](C(=O)N2CCOCC2)N(C)C(=O)[C@H](C2CCCC2)N(C)C(=O)C2(CCCC2)NC(=O)[C@@H]2CCCCN2C(=O)[C@H](CCc2ccc(C(F)(F)F)c(Cl)c2)NC(=O)CN(C)C(=O)[C@@H]1Cc1ccc(C(F)(F)F)cc1` [PP0297] ([NMeL]I[NEtG][Sar][NPrPhe(4-CF3)][Sar][hPhe(3-Cl-4-CF3)][Pip][Ac5c][NMeGly(cPent)][NMeD]-Morpholide; lactam N-11), the “NRAS/KRAS (ratio of KD value for NRAS to KD value for KRAS)” value in experiment [1] was “B (a compound having 3 or more and less than 10 is denoted as B)”. Besides, the “HRAS/KRAS (ratio of KD value for HRAS to KD value for KRAS)” value in experiment [2] was “C (A compound having a KD ratio of 0.1 or more and less than 3 is denoted as C)”. In experiment [3], this compound displayed an IC50 of 74.3 nM.

Values taken from US20240158446A1, “CYCLIC COMPOUND HAVING SELECTIVE INHIBITORY ACTION ON KRAS OVER HRAS AND NRAS” (CHUGAI SEIYAKU KABUSHIKI KAISHA, priority 2021, published 2024).
